Results: ChEMBL document CHEMBL5236544, “Furazans in Medicinal Chemistry” (J Med Chem, 2021)
Values joined by “and” are separate entries in the source; they are usually repeats but may differ in a detail not shown here. Identical values can stand only once.

How the values were obtained:
[1] = Inhibition of HIF (unknown origin); design: species or system Homo sapiens
[2] = Lipophilicity, log D of compound; assay type: physicochemical; settings: octanol/water
[3] = target: T1, Amyloid-beta precursor protein (Homo sapiens, UniProt P05067); assay: Inhibition of amyloid beta (unknown origin) aggregation at 5 uM relative to control
HCT-116 [4] = assay: Antiproliferative activity against human HCT-116 cells assessed as inhibition of cell proliferation incubated for 24 hrs by MTT assay; assay type: functional, cell-based; settings: HCT-116, 24 h
SW480 = assay: cells; settings: Homo sapiens, SW480, 24 h
Description: Antiproliferative activity against human SW480 cells assessed as inhibition of cell proliferation incubated for 24 hrs by MTT assay

[5] = target: Indoleamine 2,3-dioxygenase 1 (Homo sapiens, UniProt P14902); assay: Inhibition of IDO1 (unknown origin)
HeLa [6] = assay: Antiproliferative activity against human HeLa cells assessed as reduction in cell viability by MTT assay; assay type: functional, cell-based
HCT-116 [7] = assay: Antiproliferative activity against human HCT-116 cells assessed as inhibition of cell proliferation by MTT assay; assay type: functional, cell-based
[8] = Antiproliferative activity against mouse Lewis lung carcinoma cell line cells assessed as inhibition of cell proliferation by MTT assay; assay type: functional, cell-based
HCT-116 [9] = assay: Antitumor activity against human HCT-116 cells xenografted in mouse model assessed as reduction in tumor growth at 100 mg/kg bid relative to control; assay type: functional; design: scale not given: the % may be the effect or the level left
[10] = target: T1, Amyloid-beta precursor protein; assay: Inhibition of amyloid beta 42 in human H4 cells; assay type: cell-based
Canis familiaris [11] = assay: Cardioprotective activity in dogs assessed as reduction in aortic pressure at 5.0 ug/kg, iv relative to control; assay type: functional, Canis lupus familiaris; design: scale not given: the % may be the effect or the level left
HL-60 = assay: Antiproliferative activity against human HL-60 cells assessed as inhibition of cell proliferation incubated for 24 hrs by MTT assay; assay type: functional, cell-based; settings: HL-60, 24 h
A549 = assay: Antiproliferative activity against human A549 cells assessed as inhibition of cell proliferation incubated for 24 hrs by MTT assay; assay type: functional, cell-based; settings: A549, 24 h
Canis familiaris [12] = assay: Cardioprotective activity in dogs assessed as reduction in aortic pressure at […], iv relative to control; assay type: functional, Canis lupus familiaris; design: scale not given: the % may be the effect or the level left
Canis familiaris [13] = assay: Cardioprotective activity in dogs assessed as increasing in coronary blood flow at […], iv relative to control; assay type: functional, Canis lupus familiaris
Canis familiaris [14] = assay: Cardioprotective activity in dogs assessed as increasing in coronary blood flow at 5.0 ug/kg, iv relative to control; assay type: functional, Canis lupus familiaris; settings: dose 5 µg/kg
[15] = Half life in mouse; assay type: ADME, organism-based; settings: in vivo
[16] = Stability in rat assessed as intrinsic clearance; assay type: ADME; settings: CLH
[17] = Oral bioavailability in rat at 3 mg/kg relative to control; assay type: ADME, organism-based; settings: in vivo
HeLa [18] = assay: Antitumor activity against human HeLa cells xenografted in mouse model assessed as reduction in tumor growth at 75 mg/kg bid relative to control; assay type: functional; design: scale not given: the % may be the effect or the level left
HeLa [19] = assay: Antitumor activity against human HeLa cells xenografted in mouse assessed as reduction in tumor growth at 30 mg/kg bid relative to control; assay type: functional; design: scale not given: the % may be the effect or the level left
[20] = target: Mitogen-activated protein kinase 14 (Homo sapiens) (UniProt Q16539); assay: Inhibition of recombinant p38alpha MAPK (unknown origin) at 10 uM preincubated for 10 mins followed by substrate addition and measured after 40 mins in the presence of ATP by ADP-Glo assay; settings: time 60.0 min
[21] = target: T2, MAP kinase p38 (Homo sapiens) (UniProt O15264+Q15759+Q16539+P53778); assay: Inhibition of p38 (unknown origin) at 10 uM relative to control; assay type: protein assay
[22] = target: T2, MAP kinase p38 (Homo sapiens); assay: Inhibition of p38 (unknown origin) at 1.0 uM relative to control; assay type: protein assay
[23] = target: T3, c-Jun N-terminal kinase, JNK (Homo sapiens) (UniProt P45983+P53779+P45984); assay: Inhibition of JNK (unknown origin) at 10 uM relative to control; assay type: protein assay
[24] = target: T3, c-Jun N-terminal kinase, JNK (Homo sapiens); assay: Inhibition of JNK (unknown origin) at 1.0 uM relative to control; assay type: protein assay
THP-1 [25] = assay: Antinflammatory activity in human THP-1 cells assessed as reduction of TNF-alpha at 10 uM relative to control; assay type: functional; design: scale not given: the % may be the effect or the level left
THP-1 [26] = assay: Antinflammatory activity in human THP-1 cells assessed as reduction of TNF-alpha at 1.0 uM relative to control; assay type: functional
[27] = Neuroprotective activity against neurons (unknown origin) assessed as rescue by measuring cytokine level at 10 uM relative to control; assay type: functional, Homo sapiens, Neuron
[28] = Neuroprotective activity against neurons (unknown origin) assessed as rescue by measuring cytokine level at 1.0 uM relative to control; assay type: functional, Homo sapiens, Neuron
[29] = Drug concentration in mouse plasma at 10 mg/kg, iv administered once daily measured after 2 hrs; assay type: ADME, organism-based
[30] = Drug concentration in mouse brain at 10 mg/kg, iv administered once daily measured after 2 hrs; assay type: ADME, organism-based; settings: read-out: Ct
[31] = target: Tumor necrosis factor (Homo sapiens) (UniProt P01375); assay: Inhibition of TNF-alpha secretion in human THP-1 cells; design: concentration or dose not given beside the values; settings: concentration not given here
[32] = Drug concentration in ipsilateral striatum of malonate induced huntington disease rat measured after 6 hrs by LC/MS-MS analysis; assay type: ADME, tissue-based; settings: read-out: Ct
[33] = Cmax in Malonate induced Huntington disease […] model at 1.5 nmol administered intra striatal measured for 1 hr by LC/MS-MS analysis; assay type: ADME; design: time 1 hrs, dose 1.5 nmol; settings: in vivo
[34] = Drug concentration in ipsilateral striatum of malonate induced huntington disease rat measured after 24 hrs by LC/MS-MS analysis; assay type: ADME, tissue-based; settings: read-out: Ct
[35] = Half life in Malonate induced Huntington disease rat; assay type: ADME; settings: in vivo
Caspase-1 = Caspase-1 (Homo sapiens, UniProt P29466); assay: Inhibition of caspase-1 (unknown origin)
Caspase-3 = Caspase-3 (Homo sapiens, UniProt P42574); assay: Inhibition of caspase-3 (unknown origin)
Caspase-7 = Caspase-7 (Homo sapiens, UniProt P55210); assay: Inhibition of caspase-7 (unknown origin)
Caspase-8 = Caspase-8 (Homo sapiens, UniProt Q14790); assay: Inhibition of caspase-8 (unknown origin)
NT2 = assay: Inhibition of camptothecin induced apoptosis in human NT2 cells incubated for 5 hrs in presence of camptothecin by ELISA method; assay type: functional, cell-based; settings: NT2, 5 h

T1 sequence (P05067 whole entry): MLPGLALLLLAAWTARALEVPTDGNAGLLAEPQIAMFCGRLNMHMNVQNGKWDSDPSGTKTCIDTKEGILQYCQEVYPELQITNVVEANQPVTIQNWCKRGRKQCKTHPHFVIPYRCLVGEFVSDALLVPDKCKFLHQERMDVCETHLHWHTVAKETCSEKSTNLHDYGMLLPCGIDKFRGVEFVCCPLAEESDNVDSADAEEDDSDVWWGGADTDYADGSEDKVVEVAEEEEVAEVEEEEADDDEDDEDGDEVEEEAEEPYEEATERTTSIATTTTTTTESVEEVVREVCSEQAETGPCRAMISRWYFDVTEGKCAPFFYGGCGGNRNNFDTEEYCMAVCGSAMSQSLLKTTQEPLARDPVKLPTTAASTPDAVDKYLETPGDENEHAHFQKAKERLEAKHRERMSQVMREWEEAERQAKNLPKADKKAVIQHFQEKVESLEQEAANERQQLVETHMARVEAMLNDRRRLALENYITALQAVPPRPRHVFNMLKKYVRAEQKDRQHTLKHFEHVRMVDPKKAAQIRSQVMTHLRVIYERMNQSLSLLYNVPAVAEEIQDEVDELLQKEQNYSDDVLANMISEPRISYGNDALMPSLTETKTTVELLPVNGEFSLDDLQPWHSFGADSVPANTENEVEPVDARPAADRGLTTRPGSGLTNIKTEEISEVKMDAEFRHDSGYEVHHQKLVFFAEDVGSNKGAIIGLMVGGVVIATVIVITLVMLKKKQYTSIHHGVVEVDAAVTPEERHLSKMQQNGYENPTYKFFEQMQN
Chain of Caspase-1 (P29466 120-297 limits assumed): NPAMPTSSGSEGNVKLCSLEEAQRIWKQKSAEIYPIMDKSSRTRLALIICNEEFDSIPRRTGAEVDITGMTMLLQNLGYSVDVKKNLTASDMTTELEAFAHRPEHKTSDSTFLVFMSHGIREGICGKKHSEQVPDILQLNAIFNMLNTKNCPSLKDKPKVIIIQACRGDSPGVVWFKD
Chain of Caspase-1 (P29466 317-404 limits assumed): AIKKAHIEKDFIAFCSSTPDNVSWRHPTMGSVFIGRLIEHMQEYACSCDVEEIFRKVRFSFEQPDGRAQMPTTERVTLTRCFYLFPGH
Chain of Caspase-3 (P42574 29-175 limits assumed): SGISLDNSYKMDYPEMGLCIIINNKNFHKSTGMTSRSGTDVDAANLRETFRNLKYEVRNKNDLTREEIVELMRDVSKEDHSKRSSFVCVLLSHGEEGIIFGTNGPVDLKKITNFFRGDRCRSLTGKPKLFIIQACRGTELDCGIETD
Chain of Caspase-3 (P42574 176-277 limits assumed): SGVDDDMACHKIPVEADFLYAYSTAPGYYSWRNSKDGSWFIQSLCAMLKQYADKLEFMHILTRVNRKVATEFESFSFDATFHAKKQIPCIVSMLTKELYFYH
Chain of Tumor necrosis factor (Homo sapiens) (P01375 whole entry, looked up): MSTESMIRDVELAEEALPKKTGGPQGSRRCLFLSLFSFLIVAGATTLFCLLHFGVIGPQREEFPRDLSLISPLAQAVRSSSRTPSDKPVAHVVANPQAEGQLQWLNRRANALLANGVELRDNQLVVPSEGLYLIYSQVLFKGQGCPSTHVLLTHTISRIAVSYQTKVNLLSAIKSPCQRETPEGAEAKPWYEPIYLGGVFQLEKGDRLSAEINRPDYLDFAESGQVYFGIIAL
Chain of Indoleamine 2,3-dioxygenase 1 (P14902 whole entry): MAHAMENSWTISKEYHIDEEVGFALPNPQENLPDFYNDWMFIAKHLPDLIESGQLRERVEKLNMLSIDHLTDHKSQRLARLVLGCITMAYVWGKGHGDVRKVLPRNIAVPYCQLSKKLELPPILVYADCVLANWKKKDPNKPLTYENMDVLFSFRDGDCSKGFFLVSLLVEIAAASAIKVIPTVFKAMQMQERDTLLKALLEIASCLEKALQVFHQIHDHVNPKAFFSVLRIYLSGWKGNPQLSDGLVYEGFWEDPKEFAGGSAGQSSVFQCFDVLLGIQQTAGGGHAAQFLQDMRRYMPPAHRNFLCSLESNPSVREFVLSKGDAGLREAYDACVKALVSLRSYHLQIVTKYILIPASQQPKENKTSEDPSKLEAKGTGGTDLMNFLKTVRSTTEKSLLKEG
Chain of Mitogen-activated protein kinase 14 (Homo sapiens) (Q16539 whole entry): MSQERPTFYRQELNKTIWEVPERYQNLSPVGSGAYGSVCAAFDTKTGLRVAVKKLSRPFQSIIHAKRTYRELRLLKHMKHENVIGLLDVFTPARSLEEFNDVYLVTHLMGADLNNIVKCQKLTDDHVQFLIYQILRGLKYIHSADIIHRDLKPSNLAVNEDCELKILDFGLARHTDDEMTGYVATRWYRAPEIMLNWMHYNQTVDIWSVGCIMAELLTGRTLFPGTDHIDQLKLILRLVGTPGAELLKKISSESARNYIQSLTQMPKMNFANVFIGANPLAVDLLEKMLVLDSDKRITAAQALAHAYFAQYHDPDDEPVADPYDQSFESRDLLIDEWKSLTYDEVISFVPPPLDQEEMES
Chain of Caspase-8 (Q14790 217-374 limits assumed): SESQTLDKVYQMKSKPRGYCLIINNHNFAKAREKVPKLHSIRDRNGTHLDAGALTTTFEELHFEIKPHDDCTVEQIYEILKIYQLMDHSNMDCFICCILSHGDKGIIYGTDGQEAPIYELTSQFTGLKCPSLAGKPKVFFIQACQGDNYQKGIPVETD
Chain of Caspase-8 (Q14790 385-479 limits assumed): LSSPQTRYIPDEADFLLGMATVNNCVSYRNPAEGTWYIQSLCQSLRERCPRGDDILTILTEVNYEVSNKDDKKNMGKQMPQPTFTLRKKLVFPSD
Chain of Caspase-7 (P55210 24-198 limits assumed): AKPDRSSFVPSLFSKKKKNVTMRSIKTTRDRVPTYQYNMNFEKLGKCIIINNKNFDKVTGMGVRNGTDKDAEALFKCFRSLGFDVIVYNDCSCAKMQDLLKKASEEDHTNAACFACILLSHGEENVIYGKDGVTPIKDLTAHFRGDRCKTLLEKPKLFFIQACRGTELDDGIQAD
Chain of Caspase-7 (P55210 207-303 limits assumed): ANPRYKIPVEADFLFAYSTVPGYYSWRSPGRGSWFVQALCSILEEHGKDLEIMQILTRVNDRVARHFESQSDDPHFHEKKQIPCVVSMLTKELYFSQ

`CS(=O)(=O)c1ccc(Oc2cc(F)cc(C#N)c2)c2c1[C@H](O)[C@H](F)[C@@H]2F` [BELZUTIFAN] gave an IC50 [1] of 9000 nM and a logD [2] of 1.2.
`OC(c1cccc(-c2cc(NCc3ccccc3)c3nonc3c2)c1)C(F)(F)F` (centres undefined) gave an inhibition [3] of 57.1%.
For `c1ccc2c(c1)c1nc3nonc3nc1n2CCc1nn[nH]n1`, the EC50 (HCT-116 [4]) was 31000 nM and the EC50 (SW480) was 20000 nM.
For `O=C(NCCNc1nonc1/C(=N/O)Nc1ccc(F)c(Br)c1)c1cccc(N(CCCl)CCCl)c1`, the IC50 [5] was 130 nM, the EC50 (HeLa [6]) was 270 nM and the EC50 (HCT-116 [7]) was 5100 nM. The EC50 [8] was 18000 nM and the Activity (HCT-116 [9]) was 58% and 48%.
`O=C(O)[C@H](CC1CCC1)c1cc(Cl)c(OCC(F)(F)F)c(-c2ccc(C(F)(F)F)cc2)c1` gave an EC50 [10] of 70 nM.
`CC1(C)Oc2ccc(C#N)cc2[C@@H](N2CCCC2=O)[C@@H]1O` [LEVCROMAKALIM] gave an Activity (Canis familiaris [11]) of -11.2%.
`Nc1nonc1C(=O)N/N=C1\c2ccccc2-c2nc3nonc3nc21` showed an EC50 (HCT-116 [4]) of 1600 nM, an EC50 (HL-60) of 1200 nM and an EC50 (A549) of 800 nM.
In the case of `CC1(C)Oc2cc3nonc3cc2[C@@H](N2CCCCC2=O)[C@@H]1O`, the Activity (Canis familiaris [12]) is reported as -7.5%, the Activity (Canis familiaris [13]) is reported as 34.3% and the Activity (Canis familiaris [14]) is reported as 33.3%.
With `NS(=O)(=O)NCCNc1nonc1/C(=N/O)Nc1ccc(F)c(Br)c1` [EPACADOSTAT] the half-life [15] was < 0.5 h, the CLint scaled [16] was 11.7 mL/min/kg and the bioavailability [17] was 11%. The Activity (HeLa [18]) was 50% and the Activity (HeLa [19]) was 56%.
Work on `CCCOc1ccc(Nc2nc3nonc3nc2N2CCC(Oc3ccc(Cl)cc3)CC2)cc1` yielded an inhibition [20] of 99%, an inhibition [21] of 99% and an inhibition [22] of 37%. It also gave an inhibition [23] of 98%, an inhibition [24] of 49% and an Activity (THP-1 [25]) of 74%. It also gave an inhibition at 1 µM (THP-1 [26]) of 51%, an Activity [27] of 51% and an Activity [28] of 33%. The concentration at 2 h [29] was 430 nM, the concentration at 2 h [30] was 800 nM and the inhibition [31] was 74%.
Work on `CCCCCCN(C)CC(=O)C(CC(=O)O)NC(=O)[C@H](CC)n1cc(C(C)(C)C)nc(NCc2nonc2C)c1=O` (some centres undefined) yielded a concentration at 6 h [32] of 5100 nM, a Cmax [33] of 32200 nM and a concentration at 24 h [34] of 100 nM. For the same molecule, the half-life [35] was 3 h, the IC50 (Caspase-1) was 67 nM and the IC50 (Caspase-3) was 6 nM. The IC50 (Caspase-7) was 42 nM, the IC50 (Caspase-8) was 6480 nM and the EC50 (NT2) was 21 nM.
